Measured values reported in patent US20170273985A1, “TRICYCLIC DERIVATIVE” (Sunovion Pharmaceuticals Inc., priority 2014, published 2017).

Target: PDE1B (Homo sapiens, UniProt Q01064)
Assay: In vitro HTRF PDE1 inhibition assay (PDE1B)
Assay type: biochemical
Source text: An exemplary procedure for the in vitro Homogenous Time Resolved Fluorescence assay, which can be used to determine the inhibitory action of compounds of the invention toward PDE1 or its isoforms, follows. The HTRF PDE1 assay utilized the HTRF (Homogenous Time Resolved Fluorescence) technology, which is based on the competition between unlabeled cyclic nucleotide and cyclic nucleotide labeled with XL665 for the binding to cyclic nucleotide-specific antibody labeled with cryptate. The HTRF signal is thus inversely proportional to the concentration of cyclic nucleotide being measured. Since phosphodiesterases break down cyclic nucleotides the HTRF signal was used to determine PDE activity. The Cisbio cGMP HTRF assay kit (Cat no: 62GM2PEC) was utilized. Cyclic GMP was diluted to 200 nM in HTRF assay buffer (1 mM CaCl2, 10 mM MgCl2, 10 mM Tris-HCl, 0.1% BSA, pH 7.4). 10 μl of compound or DMSO was diluted in 200 nM cyclic GMP solution and added to wells of a 96 well white plate to give 100 nM cyclic GMP in 1% DMSO final concentration. PDE (1A3, 1B or IC) was diluted to 2× working concentration in HTRF assay buffer with 2 μg/ml calmodulin, and 10 μl was added to initiate the reaction. The plate was then incubated for 45 minutes at 37° C. d2-Labelled cyclic GMP and anti-cGMP cryptate were diluted in 50 mM phosphate buffer, 0.8 M KF, 1% Triton X100, 0.2% BSA, pH 7.0. Following incubation 10 μl d2-cGMP, then 10 μl anti cGMP cryptate were added to each well and the plate was incubated for 45 minutes at room temperature. The plate was then read on Perkin Elmer Victor at 2 different FRET readings ex/emm 340 nm/665 nm and 340 nm/615 nm. Compounds having an IC50 of <1 μM, are denoted as +++. Compounds having an IC50 of 1−10 μM, are denoted as ++. Compounds having an IC50 of 10-100 μM, are denoted as +.

Compound	IC50 (Table 25) [µM]	IC50 (Table 22) [µM]
CC(C)c1ncc2c(=O)n3c(nn12)N(CCCc1ccncc1)CC3 [Example 13]		< 1
COc1cccc(CCCN2CCCn3c2nn2c(C(C)C)ncc2c3=O)c1 [Example 49]		< 1
CC(C)c1ncc2c(=O)n3c(nn12)N(C)C(c1ccc(Cl)cc1)CC3 (stereo not shown) [Example 72]		< 1
O=c1c2cnc(C3CCOCC3)n2nc2n1CCN2CCC1CCCC1 [Example 54]		< 1
O=c1c2cnc(C3CCOCC3)n2nc2n1CCCN2CCCc1ccccc1 [Example 63]		< 1
CC(C)c1ncc2c(=O)n3c(nn12)N(CCc1cccc(F)c1)CCC3 [Example 44]		< 1
CC(C)n1ncc2c(=O)n3c(nc21)N(Cc1ccc(-c2cccc(F)n2)cc1)CC3 [Example 76]		< 1
CC(C)c1ncnc2c(=O)n3c(nc12)N(Cc1ccc(C(F)(F)F)cc1)CC3 [Example 83]		< 1
CCCN1CCCn2c1nn1c(C(C)C)ncc1c2=O [Example 15]		< 1
CC(C)c1ncc2c(=O)n3c(nn12)N(Cc1ccc(C#N)cc1)CCCC3 [Example 52]		< 1
CCCCCN1CCCn2c1nn1c(C(C)C)ncc1c2=O [Example 18]		< 1
CC(C)c1ncnc2c(=O)n3c(nc12)N(Cc1ccc(C#N)cc1)CC3 [Example 82]		< 1
COc1ccc(C2Cn3c(nn4c(C5CCOCC5)ncc4c3=O)N2C)cc1 (stereo not shown) [Example 86]		< 1
CC(C)c1ncc2c(=O)n3c(nn12)N(CCCc1ccc(F)cc1)CCC3 [Example 47]		< 1
CC(C)c1ncc2c(=O)n3c(nn12)N(Cc1ccc(C(F)(F)F)cc1)CCC3 [Example 34]		< 1
CCCN1c2nn3c(C4CCOCC4)ncc3c(=O)n2CC1c1ccc(OC)cc1 (racemic) [Example 67]		< 1

Compound	IC50 (Table 25) [µM]	IC50 (Table 22) [µM]
CC(C)c1ncc2c(=O)n3c(nn12)N(CCCc1cccnc1)CCC3 [Example 40]		< 1
CC(C)c1ncc2c(=O)n3c(nn12)N(CCCc1cccnc1)CC3 [Example 12]		< 1
2-(4-chlorophenyl)-8-isopropyl-2H-imidazo[1,5-f]oxazolo[2,3-c][1,2,4]triazin-5(3H)-one [Example 133]		< 1
CC(C)c1ncc2c(=O)n3c(nn12)N(CCCc1ccncc1)CCC3 [Example 39]		< 1
CC(C)c1ncc2c(=O)n3c(nn12)N(Cc1cccc(Cl)c1)CCC3 [Example 33]		< 1
CC(C)c1ncc2c(=O)n3c(nn12)N(CCc1ccccn1)CC3 [Example 10]		< 1
CC(C)c1ncc2c(=O)n3c(nn12)N(CCN1CCOCC1)CCC3 [Example 26]		< 1
CC(C)c1ncc2c(=O)n3c(nn12)N(C)[C@H](c1ccc(Cl)cn1)C3 [Example 85, (S)-2-(5-Chloropyridin-2-yl)-8-isopropyl-1-methyl-2,3-dihydrodiimidazo[2,1-c:1′,5′-f][1,2,4]triazin-5(1H)-one]		< 1
CCCCN1CCCn2c1nn1c(C(C)C)ncc1c2=O [Example 17]		< 1
CC(C)c1ncc2c(=O)n3c(nn12)N(Cc1cccnc1)CCC3 [Example 36]		< 1
CC(C)c1ncc2c(=O)n3c(nn12)N(CCc1cccnc1)CCC3 [Example 42]		< 1
CC(C)c1ncc2c(=O)n3c(nn12)N(CCCc1ccccc1F)CCC3 [Example 46]		< 1
COCCCN1CCn2c1nn1c(C(C)C)ncc1c2=O [Example 6]		< 1
CC1CN(Cc2ccc(C#N)cc2)c2nn3c(C(C)C)ncc3c(=O)n2C1 (stereo not shown) [Example 65]		< 1
N#Cc1ccc(CCN2CCn3c2nn2c(C4CCOCC4)ncc2c3=O)cc1 [Example 58]		< 1

Second part, the compound after the results:

IC50 (Table 25) [µM]	IC50 (Table 22) [µM]	Compound
< 1		COc1ccc(CN2CCn3c2nn2c(C4CCOCC4)ncc2c3=O)cc1 [Example 157]
	1 to 10	COc1ccc(C2CCn3c(nn4c(C5CCCC5)ncc4c3=O)C2)cc1 (stereo not shown) [Example 136]
< 1		CC(C)c1ncc2c(=O)n3c(nn12)N(CC1CCOCC1)CC(C)(C)C3 [Example 199]
< 1		O=c1c2cnn(C3CCOCC3)c2nc2n1CCCN2Cc1ccc(-c2ccccn2)cc1 [Example 220]
< 1		CC(C)CCN1CCCn2c1nn1c(C3CCOCC3)ncc1c2=O [Example 185]
	1 to 10	COc1ccc(C2Cn3c(nn4c(C5CCOCC5)ncc4c3=O)N2C)cc1 (stereo not shown) [Example 87]
	10 to 100	N#Cc1cccc(CCN2CCCn3c2nn2c(C4CCOCC4)ncc2c3=O)c1 [Example 117]
< 1		O=c1c2cnn(C3CCOCC3)c2nc2n1CCN2Cc1ccc(-c2ccc(F)cn2)cc1 [Example 208]
	< 1	CCc1ccc(C2Cn3c(nn4c(C5CCOCC5)ncc4c3=O)N2CC)cn1 (stereo not shown) [Example 88]
< 1		CC(C)CCN1CCCn2c1nc1c(cnn1C1CCOCC1)c2=O [Example 224]
	< 1	CCc1ccc(C2Cn3c(nn4c(C(C)C)ncc4c3=O)N2CC)cn1 (single isomer, unassigned) [Example 94]
< 1		CC(C)n1ncc2c(=O)n3c(nc21)N(CC1CCC(F)(F)CC1)CC3 [Example 206]
	< 1	CC(C)c1ncc2c(=O)n3c(nn12)N(CCCC(O)CO)CCC3 (stereo not shown) [Example 111, 1-(4,5-Dihydroxypentyl)-9-isopropyl-1,2,3,4-tetrahydro-6H-imidazo[51-f]pyrimido[2,1-c][1,2,4]triazin-6-one]
	< 1	CC(C)c1ncc2c(=O)n3c(nn12)OC(c1ccc(Cl)cc1)CC3 (stereo not shown) [Example 127]
	< 1	CC(C)c1ncc2c(=O)n3c(nn12)OC(Cc1ccccc1)CC3 (stereo not shown) [Example 130]
< 1		CC(C)c1ncc2c(=O)n3c(nn12)N(Cc1ccc(Cl)cn1)CCC3 [Example 177]
< 1		O=c1c2cnc(C3CCC3)n2nc2n1CCN2CC1CCOCC1 [Example 143]
< 1		CC(C)n1ncc2c(=O)n3c(nc21)N(Cc1ccc(Cl)cn1)CCC3 [Example 214]
< 1		O=c1c2cnn(C3CCOCC3)c2nc2n1CCN2CC1CCC(F)(F)CC1 [Example 210]
< 1		O=c1c2cnc(C3CCOCC3)n2nc2n1CCN2CC1CC1(F)F (racemic) [Example 176]
< 1		CC(C)CN1CCn2c1nn1c(C3CCOCC3)ncc1c2=O [Example 174]

IC50 (Table 25) [µM]	IC50 (Table 22) [µM]	Compound
	1 to 10	CCc1ccc(C2Cn3c(nn4c(C(C)C)ncc4c3=O)N2CC)cn1 (stereo not shown) [Example 95]
< 1		O=c1c2cnc(C3CCOCC3)n2nc2n1CCN2CCOC(F)(F)F [Example 146]
	1 to 10	O=c1c2cnc(C3CCCC3)n2nc2n1CCC(c1ccccc1)C2 (stereo not shown) [Example 134, 3-Cyclopentyl-7-phenyl-8,9-dihydro-6H-imidazo[5,1-f]pyrido[2,1-c][1,2,4]triazin-11(7H)-one]
< 1		CC(C)n1ncc2c(=O)n3c(nc21)N(Cc1ccc(-c2ccccn2)cc1)CCC3 [Example 215]
< 1		O=c1c2cnc(C3CCC3)n2nc2n1CCCN2Cc1ccc(Cl)cn1 [Example 179]
< 1		O=c1c2cnc(C3CCC3)n2nc2n1CCN2CCCc1ccccn1 [Example 142]
< 1		O=c1c2cnc(C3CCOCC3)n2nc2n1CCN2CC1CCC1 [Example 151]
1 to 10		CC(C)CCN1CCn2c1nn1c(C3CCOCC3)nc(C#N)c1c2=O [Example 235, 1-(3-Methylbutyl)-5-oxo-8-(tetrahydro-2H-pyran-4-yl)-2,3-dihydro-1H,5H-diimidazo[2,1-c 5′,1′-f][1,2,4]triazine-6-carbonitrile]
< 1		O=c1c2cnn(C3CCOCC3)c2nc2n1CCCN2Cc1ccc(F)cc1 [Example 219]
< 1		CC(C)n1ncc2c(=O)n3c(nc21)N(Cc1ccc(-c2ccc(F)cn2)cc1)CC3 [Example 205]
	1 to 10	COc1cccc(C2CCn3c(nn4c(C(C)C)ncc4c3=O)O2)c1 (stereo not shown) [Example 128]
	1 to 10	CCCN1c2nn3c(C(C)C)ncc3c(=O)n2C[C@@H]1c1ccc(CC)nc1 [Example 96]
< 1		CC1CN(CCCC(F)(F)F)c2nn3c(C4CCOCC4)ncc3c(=O)n2C1 (stereo not shown) [Example 198]
	10 to 100	CCc1ccc([C@@H]2Cn3c(nn4c(C5CCOCC5)ncc4c3=O)N2CC(C)C)cn1 [Example 93]
< 1		O=c1c2cnn(C3CCOCC3)c2nc2n1CCN2Cc1ccc(-c2ccccn2)cc1 [Example 207]
< 1		CC(C)CN1CCCn2c1nc1c(cnn1C1CCOCC1)c2=O [Example 226]
< 1		CC(C)CCN1CC(F)(F)Cn2c1nn1c(C3CCOCC3)ncc1c2=O [Example 203]
< 1		O=c1c2cnc(C3CCOCC3)n2nc2n1CCN2CCC1CC1 [Example 149]
< 1		CC(C)(C)CN1CCn2c1nn1c(C3CCOCC3)ncc1c2=O [Example 175]
< 1		O=c1c2cnc(C3CCOCC3)n2nc2n1CCCN2C[C@H]1CC[C@H](C(F)(F)F)CC1 [Example 192]
< 1		COC(C)c1ncc2c(=O)n3c(nn12)N(CCC(C)(C)C)CC3 (stereo not shown) [Example 145]
